# Source: the supplement of paper PMC10307832
# Experiments:
# Assay in all cases: relative viability (nuclei count vs DMSO), 5 days (fraction); higher = more cells survive
# H3255 = system: H3255
# Outline: (§1)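 Lung cancer cell lines in 1536-well plates got either a single drug or a fixed anchor-drug dose together with five library-drug doses (not always all listed) in √10 steps, by pin tool, on the day after seeding. Nuclei were counted after 5 days, and relative viability is the treated-to-vehicle ratio of nuclei counts. Values are medians of duplicate plates.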
# NCI-H1793 = system: NCI-H1793
# Outline: as §1
# NCI-H441 = system: NCI-H441
# Outline: as §1
# 201T = system: 201T
# Outline: as §1
# NCI-H1734 = system: NCI-H1734
# Outline: as §1
# NCI-H1563 = system: NCI-H1563
# Outline: as §1
# NCI-H2405 = system: NCI-H2405
# Outline: as §1
# PC-14 = system: PC-14
# Outline: as §1
# NCI-H322M = system: NCI-H322M
# Outline: as §1
# LOU-NH91 = system: LOU-NH91
# Outline: as §1
# EPLC-272H = system: EPLC-272H
# Outline: as §1
# NCI-H647 = system: NCI-H647
# Outline: as §1
# UMC-11 = system: UMC-11
# Outline: as §1
# SW 900 = system: SW 900
# Outline: as §1
# HCC-15 = system: HCC-15
# Outline: as §1
# NCI-H2023 = system: NCI-H2023
# Outline: as §1
# NCI-H520 = system: NCI-H520
# Outline: as §1
# COR-L23 = system: COR-L23
# Outline: as §1
# NCI-H3122 = system: NCI-H3122
# Outline: as §1
# NCI-H2347 = system: NCI-H2347
# Outline: as §1
# NCI-H1650 = system: NCI-H1650
# Outline: as §1
# NCI-H2170 = system: NCI-H2170
# Outline: as §1
compound,measurement,setting,value
CCN(CC)CCCCNc1ncc2cc(-c3cc(OC)cc(OC)c3)c(NC(=O)NC(C)(C)C)nc2n1 + Cc1nc(Nc2ncc(C(=O)Nc3c(C)cccc3Cl)s2)cc(N2CCN(CCO)CC2)n1 [Dasatinib] (partner 0.075 µM),relative viability,H3255; first compound 0.01 µM,0.342
same,relative viability,H3255; first compound 0.03162 µM,0.305
same,relative viability,H3255; first compound 0.1 µM,0.478
same,relative viability,H3255; first compound 0.3162 µM,0.594
same,relative viability,H3255; first compound 1 µM,0.339
same,relative viability,NCI-H1793; first compound 0.01 µM,0.369
same,relative viability,NCI-H1793; first compound 0.03162 µM,0.312
same,relative viability,NCI-H1793; first compound 0.1 µM,0.372
same,relative viability,NCI-H1793; first compound 0.3162 µM,0.283
same,relative viability,NCI-H1793; first compound 1 µM,0.271
same,relative viability,NCI-H441; first compound 0.01 µM,0.68
same,relative viability,NCI-H441; first compound 0.03162 µM,0.572
same,relative viability,NCI-H441; first compound 0.1 µM,0.604
same,relative viability,NCI-H441; first compound 0.3162 µM,0.775
same,relative viability,NCI-H441; first compound 1 µM,0.554
same,relative viability,201T; first compound 0.01 µM,0.553
same,relative viability,201T; first compound 0.03162 µM,0.568
same,relative viability,201T; first compound 0.1 µM,0.677
same,relative viability,201T; first compound 0.3162 µM,0.568
same,relative viability,201T; first compound 1 µM,0.635
same,relative viability,NCI-H1734; first compound 0.01 µM,0.508
same,relative viability,NCI-H1734; first compound 0.03162 µM,0.507
same,relative viability,NCI-H1734; first compound 0.1 µM,0.521
same,relative viability,NCI-H1734; first compound 0.3162 µM,0.543
same,relative viability,NCI-H1734; first compound 1 µM,0.436
same,relative viability,NCI-H1563; first compound 0.01 µM,0.477
same,relative viability,NCI-H1563; first compound 0.03162 µM,0.412
same,relative viability,NCI-H1563; first compound 0.1 µM,0.474
same,relative viability,NCI-H1563; first compound 0.3162 µM,0.478
same,relative viability,NCI-H1563; first compound 1 µM,0.503
same,relative viability,NCI-H2405; first compound 0.01 µM,0.193
same,relative viability,NCI-H2405; first compound 0.03162 µM,0.202
same,relative viability,NCI-H2405; first compound 0.1 µM,0.466
same,relative viability,NCI-H2405; first compound 0.3162 µM,0.205
same,relative viability,NCI-H2405; first compound 1 µM,0.186
same,relative viability,PC-14; first compound 0.01 µM,0.263
same,relative viability,PC-14; first compound 0.03162 µM,0.268
same,relative viability,PC-14; first compound 0.1 µM,0.276
same,relative viability,PC-14; first compound 0.3162 µM,0.264
same,relative viability,PC-14; first compound 1 µM,0.162
same,relative viability,NCI-H322M; first compound 0.01 µM,0.242
same,relative viability,NCI-H322M; first compound 0.03162 µM,0.246
same,relative viability,NCI-H322M; first compound 0.1 µM,0.244
same,relative viability,NCI-H322M; first compound 0.3162 µM,0.257
same,relative viability,NCI-H322M; first compound 1 µM,0.237
same,relative viability,LOU-NH91; first compound 0.01 µM,0.51
same,relative viability,LOU-NH91; first compound 0.03162 µM,0.521
same,relative viability,LOU-NH91; first compound 0.1 µM,0.629
same,relative viability,LOU-NH91; first compound 0.3162 µM,0.718
same,relative viability,LOU-NH91; first compound 1 µM,0.57
same,relative viability,EPLC-272H; first compound 0.01 µM,0.379
same,relative viability,EPLC-272H; first compound 0.03162 µM,1.08
same,relative viability,EPLC-272H; first compound 0.1 µM,0.322
same,relative viability,EPLC-272H; first compound 0.3162 µM,0.294
same,relative viability,EPLC-272H; first compound 1 µM,0.241
same,relative viability,NCI-H647; first compound 0.01 µM,0.189
same,relative viability,NCI-H647; first compound 0.03162 µM,0.174
same,relative viability,NCI-H647; first compound 0.1 µM,0.209
same,relative viability,NCI-H647; first compound 0.3162 µM,0.218
same,relative viability,NCI-H647; first compound 1 µM,0.0989
same,relative viability,UMC-11; first compound 0.01 µM,0.541
same,relative viability,UMC-11; first compound 0.03162 µM,0.485
same,relative viability,UMC-11; first compound 0.1 µM,0.722
same,relative viability,UMC-11; first compound 0.3162 µM,0.581
same,relative viability,UMC-11; first compound 1 µM,0.405
same,relative viability,SW 900; first compound 0.01 µM,0.346
same,relative viability,SW 900; first compound 0.03162 µM,0.673
same,relative viability,SW 900; first compound 0.3162 µM,0.345
same,relative viability,SW 900; first compound 1 µM,0.268
same,relative viability,HCC-15; first compound 0.01 µM,0.613
same,relative viability,HCC-15; first compound 0.03162 µM,0.7
same,relative viability,HCC-15; first compound 0.1 µM,0.681
same,relative viability,HCC-15; first compound 0.3162 µM,0.748
same,relative viability,HCC-15; first compound 1 µM,0.554
same,relative viability,NCI-H2023; first compound 0.01 µM,0.548
same,relative viability,NCI-H2023; first compound 0.03162 µM,0.675
same,relative viability,NCI-H2023; first compound 0.1 µM,0.657
same,relative viability,NCI-H2023; first compound 0.3162 µM,0.571
same,relative viability,NCI-H2023; first compound 1 µM,0.493
same,relative viability,NCI-H520; first compound 0.01 µM,0.182
same,relative viability,NCI-H520; first compound 0.03162 µM,0.2
same,relative viability,NCI-H520; first compound 0.1 µM,0.216
same,relative viability,NCI-H520; first compound 0.3162 µM,0.159
same,relative viability,NCI-H520; first compound 1 µM,0.162
same,relative viability,COR-L23; first compound 0.01 µM,0.527
same,relative viability,COR-L23; first compound 0.03162 µM,0.549
same,relative viability,COR-L23; first compound 0.1 µM,0.546
same,relative viability,COR-L23; first compound 0.3162 µM,0.566
same,relative viability,COR-L23; first compound 1 µM,0.608
same,relative viability,NCI-H3122; first compound 0.01 µM,0.876
same,relative viability,NCI-H3122; first compound 0.03162 µM,0.914
same,relative viability,NCI-H3122; first compound 0.1 µM,0.939
same,relative viability,NCI-H3122; first compound 0.3162 µM,0.954
same,relative viability,NCI-H3122; first compound 1 µM,0.842
same,relative viability,NCI-H2347; first compound 0.01 µM,0.149
same,relative viability,NCI-H2347; first compound 0.03162 µM,0.315
same,relative viability,NCI-H2347; first compound 0.1 µM,0.39
same,relative viability,NCI-H2347; first compound 0.3162 µM,0.288
same,relative viability,NCI-H2347; first compound 1 µM,0.31
same,relative viability,NCI-H1650; first compound 0.01 µM,0.319
same,relative viability,NCI-H1650; first compound 0.03162 µM,0.286
same,relative viability,NCI-H1650; first compound 0.1 µM,0.375
same,relative viability,NCI-H1650; first compound 0.3162 µM,0.21
same,relative viability,NCI-H1650; first compound 1 µM,0.191
same,relative viability,NCI-H2170; first compound 0.01 µM,0.537
same,relative viability,NCI-H2170; first compound 0.03162 µM,0.574
same,relative viability,NCI-H2170; first compound 0.1 µM,0.643
same,relative viability,NCI-H2170; first compound 0.3162 µM,0.818
same,relative viability,NCI-H2170; first compound 1 µM,0.539
